# Test results: patent publication US11813264B2, “PAR1 modulation to alter myelination” (Mayo Foundation for Medical Education and Research, priority 2014, dated 2023)
# Where no end group is shown, it is not given here.
# How the values were obtained:
# [1] = test system: primary oligodendrocyte cultures (3 DIV); experiment: ATP toxicity assay in oligodendrocytes; format: cell-based, mouse
# Protocol: (§1) PAR agonist-induced changes in oligodendrocyte morphology: To determine the effects of recombinant Klk6, Klk1, thrombin, or PAR1-AP on oligodendroglia, 3 DIV PAR1^+/+, PAR1^−/−, and PAR2^−/− oligodendrocytes, PAR1^+/+ OPCs immediately post purification, or Oli-neu cells were grown on cover slips in the presence of agonists for 24 h. For ATP toxicity assays, oligodendrocytes were incubated with ATP (50 μM, Sigma Aldrich) in the presence of Klk6 or Klk1. Following each treatment, oligodendrocyte and OPC cultures were immunolabeled for O4 to visualize the cell body and processes. Oli-neu processes were visualized by staining the actin cytoskeleton with Cy3-conjugated Phalloidin.
# (§2) To assess the effects of Klk6 and other PAR1 agonists on oligodendrocyte morphology and process stability, 20× digital micrographs were overlaid with a 780 μm^2 grid and ImageJ software 1.45r (National Institutes of Health) used to record cell number and the number of processes crossing horizontal grid lines (Scarisbrick et al., Brain 125:1283-1296, 2002). Data are expressed as the mean number of O4^+ or Phalloidin^+ processes per DAPI^+ cell (±SEM).
# (§3) The extent of oligodendrocyte morphological differentiation was determined by scoring O4^+/DAPI^+ oligodendrocyte morphology as simple (only primary processes, no secondary branching), incomplete (one or more primary process without secondary branching), complete (all primary processes with secondary branching), or membrane (complete secondary branching with membrane sheets) (Huang et al., Nat Neurosci 14:45-53, 2011). The mean number of cells in each morphology class was determined across treatments and expressed as percent of total O4^+/DAPI^+ cells.
# (§4) Changes in OPC or oligodendrocyte morphology were quantified from five microscopic fields per cover slip with the mean and SEM calculated across three cover slips per experiment. Each experiment was repeated at least twice using independent cultures. Analysis of oligodendrocyte morphology was performed without knowledge of treatment groups.
# [2] = test system: PLP and MBP RNA expression; experiment: Myelin gene expression (PLP, MBP RNA) in Oli-neu oligodendrocytes, quantitative RT-PCR; format: cell-based, mouse; settings: for PLP expression: 24 hours, Klk6 300 nM, thrombin 270 nM, PAR1-AP 100 μM, Klk1 300 nM
# Protocol: (§5) Oli-neu oligodendrocytes are derived from mouse primary oligodendrocyte cultures retrovirally transduced to constitutively express the t-neu oncogene (Jung et al., Eur J Neurosci 7:1245-1265, 1995). All morphology, signaling, and myelin gene expression studies using Oli-neu oligodendrocytes were performed in media containing DMEM, 1% N2, 2 mM Glutamax, 1 mM sodium pyruvate, 20 mM HEPES buffer, and 50 μM β-mercaptoethanol (Sigma Aldrich. To evaluate PAR and Klk6 gene expression in Oli-neu (Table 2), cells were differentiated by treatment with 1 mM N^6, 2′-O-dibutyryladenosine 3′, 5′-cyclic monophosphate disodium salt (dbcAMP) for 72 hours prior to harvesting for RNA isolation. All cells were maintained at 37° C. in 95% air and 5% CO2. Cell culture reagents were obtained from Life Technologies (Carlsbad, CA) unless otherwise indicated. All cell culture experiments were performed in triplicate and repeated at least twice.
# Expression of oligodendrocyte PARs and Klk6-real-time quantitative PCR: Total RNA was isolated from cultured cells using RNA STAT-60 (Tel-Test, Friendswood, TX). Klk6, PAR1, or PAR2 RNA expression was determined in 0.5 μg of RNA with the iScript one-step RT-PCR kit with SYBR® Green and the iCycler iQ5 system (BioRad, Hercules, CA). Transcript copy number was determined using a standard curve prepared by parallel amplification of cDNA clones diluted to known copy number (Christophi et al., J Neurochem 91:1439-1449, 2004). Amplification of the housekeeping gene glyceraldehyde phosphate 3-dehydrogenase (GAPDH) was used to control for loading. The mean and standard error (SEM) of transcript copy number was determined and data expressed as RNA copy number on a logarithmic scale.
# Regulation of oligodendrocyte myelin gene expression by PAR1 agonists: Primary murine oligodendrocytes (3 DIV) or Oli-neu oligodendrocytes were seeded at 3.5×10^5 cells/well in six-well tissue culture plates. Cells were then treated with Klk6 (30-300 nM), Klk1 (300 nM), thrombin (270 nM), or PAR1-AP (100 μM) for 24 hours prior to RNA isolation. Expression of myelin-associated genes, PLP, and MBP was examined by real-time quantitative RT-PCR. Expression levels of target genes were normalized to GAPDH and expressed as percent control.
# [3] = test system: oligodendrocyte progenitor cells (OPCs); experiment: OPC process outgrowth; format: cell-based, mouse; settings: 24 h; for OPC process extension / outgrowth: Klk6 150 nM, thrombin 135 nM, Klk1 150 nM
# Protocol: (§6) Oligodendrocyte Cultures: Purified cortical oligodendrocyte progenitor cells (OPCs) and differentiated oligodendrocytes were isolated from mixed glial cultures derived from postnatal day 1 mice (McCarthy and de Vellis, J Cell Blot 85:890-902, 1980). Glial cultures were grown in media containing DMEM, 2 mM Glutamax, 1 mM sodium pyruvate, 20 mM HEPES, and 10% heat-inactivated fetal calf serum (Atlanta Biologicals, Lawrenceville, GA). OPCs were isolated from 10 days-in-vitro (DIV) mixed glial cultures by overnight shaking and purified by differential adhesion. OPCs were seeded in defined Neurobasal A media containing 1% N2, 50 U/mL penicillin/streptomycin, 2 mM Glutamax, 1 mM sodium pyruvate, 0.45% glucose, and 50 μM β-mercaptoethanol (Sigma Aldrich, USA). OPCs were seeded at 3×10^4/cm^2 onto tissue culture plastic or 12 mm glass cover slips coated with poly-L-lysine (PLL, 10 μg/mL). After 24 h, cultures were 92-98% immunoreactive (IR) for sulfatide (O4) and by 72 hours at least 80% were also MBP-IR.
# as §1, §2, §4
# [4] = test system: primary oligodendrocyte cultures (3 DIV); experiment: Oligodendrocyte morphological differentiation scoring (simple, incomplete, complete, membrane), process and cell number; format: cell-based, mouse
# Protocol: as §6, §1, §2, §3, §4
# Oli-neu oligodendrocytes = experiment: Process retraction in Oli-neu oligodendrocytes (Phalloidin+ processes per cell); format: cell-based, mouse; settings: 24 hours, PAR1-AP 100 μM, Klk1 300 nM; for number of processes per cell: Klk6 30, 150, 300 nM, thrombin 270 nM
# Protocol: as §5, §1, §2
# Erk1/2 phosphorylation = experiment: Klk6-PAR signaling assay, Erk1/2 phosphorylation by Western blot in Oli-neu; format: cell-based, mouse; settings: treatment alone; Klk6 10 minutes
# Protocol: Klk6-PAR signaling assays: To examine the ability of Klk6 to mediate PAR-dependent signaling in oligodendrocytes, Oli-neu oligodendroglia (3.5×10^5 cells/well in six-well plates) were treated with Klk6 (150 nM) for 10 min, followed by protein harvest. Cell lysates were analyzed for phosphorylated or nonphosphorylated Erk1/2 by Western blot. In experiments to determine the role of PARs in Klk6 signaling, Oli-neu were preincubated with the PAR1 antagonist, SCH79797 dihydrochloride (50 nM, Tocris Biosciences, Minneapolis, MN) for 30 minutes prior to Klk6 application.
# Western blot: Oli-neu lysates were obtained using a buffer containing 1% NP40, 0.5% deoxycholate, 10% glycerol, and 20 mM Tris base and separated on SDS-polyacrylamide gels prior to transfer. Membranes were blocked with 5% milk in TBS-T and incubated overnight with primary antibodies including rabbit anti-phospho-Erk1/2 (1:1,000, Cell Signaling Technology, Danvers, MA), followed with a species-appropriate horseradish peroxidase-conjugated secondary antibody (1:20,000 GE Healthcare Unlimited, UK). Signal was detected using Chemiluminescence Supersignal Pico (Pierce, Rockford, IL). Western blots were repeated three times from independent cultures, scanned, and quantified by densitometry (BioRad Quantity One 1-D Analysis Software, BioRad, Hercules, CA). Erk1/2 signal was normalized to its nonphosphorylated form. Equal loading was verified by reprobing blots for […] (Novus Biologicals, Littleton, CO).
# spinal cord white matter = experiment: Microinjection of Klk6 or PAR1-AP into spinal cord dorsal column white matter; format: in vivo, mouse
# Protocol: In vivo effects of excess Klk6 or PAR1-AP in spinal cord white matter: All mice were administered Buprenorphine preoperatively (Buprenex, 0.03 mg/kg, intraperitoneal (i.p.), Reckitt Benckise, Slough, UK) and every 12 hours for the first 48 hours following surgery. Surgical anesthesia was induced in age-matched male C57BL6/J or PAR12/2 mice using Ketamine (Ketaset, 80 mg/kg, Fort Dodge Animal Health, Fort Dodge, IA) and Xylazine i.p. (Anased, 10 mg/kg, Lloyd Laboratories, Shenendoah, IA). A thoracic (T11-T12) laminectomy was performed and a 30-40 μm glass capillary needle inserted into a 10 μL gas-tight Hamilton Syringe (Hamilton Company, Reno, NV) used to deliver 2 μL of Klk6 (0.01 μg/μL (300 nM)), PAR1-AP (0.01 μg/μL (100 μM)), or vehicle (physiologic saline) alone (n=3 for each treatment group) using a stereotaxic injection system (Stoelting, Wood Dale, IL). Under micromanipulator control (MyNeurolab, Richmond, IL), the needle was inserted 350 μm into the dorsal column, infusion carried out over 5 minutes and the needle left in place for 3 minutes to avoid backflow. All mice received 0.5 mL of sterile saline and Baytril (2.5 mg/kg, Bayer Healthcare, Shawnee Mission, KS) i.p. postoperatively.
# Seventy-two hours after microinjection of PAR1 agonists, mice were deeply anesthetized with Nembutal (50 mg/kg, i.p., Lundbeck, Deerfield, IL) and perfused transcardially with 4% PFA. Two millimeter transverse spinal cord segments encompassing the microinjection epicenter as well as 2 mm rostral and caudal were embedded in paraffin. Six micrometer sections were cut and slide mounted serially. Every sixth slide was stained with hematoxylin and eosin (H&E). Adjacent sections were immunostained for oligodendroglia using an antibody specific for CC-1/APC (ab16794, AbCam, Cambridge, MA), myelin using an antibody recognizing MBP (MAB386, Millipore, Bedford, MA), and standard avidin-biotin immunoperoxidase techniques (Scarisbrick et al., J Comp Neurol 431:347-361, 2001; and Scarisbrick et al. 2012b, supra). Stained sections were cover slipped with Permount (Fisher Scientific, Pittsburgh, PA) containing 2 mg/mL bisbenzamide to visualize nuclei (Sigma Aldrich).
# Measurements of white matter lesion area were based on signs of pathology (vacuolation, tissue destruction, hemorrhage) in 20× digital images of H&E stained sections. The largest lesion area in each animal was used to determine mean maximal lesion area and expressed in μm^2. The integrity of MBP immunoreactivity was assessed in sections for 2,000 μm rostrocaudal to the microinjection site. The number of dorsal column CC-1^+/DAPI^+ cells was quantified in sections across […] of spinal cord extending rostrocaudal to the epicenter. The mean area of dorsal column white matter in the intact spinal cord was approximately […]. To put the number of CC-1^+ oligodendrocytes into context, the mean number CC-1V cells per mm^2 was evaluated as the mean number per […]. Sections stained for CC-1 were also stained for GFAP (Sigma Aldrich), allowing for the exclusion of CC-1^+ astrocytes; however, no examples of double labeled cells were observed.
# [5] = Klk6 150 nM, Klk1 300 nM, 24 hours
compound,measurement,setting,value
"Nc1ncnc2c1ncn2[C@@H]1O[C@H](COP(=O)(O)OP(=O)(O)OP(=O)(O)O)[C@@H](O)[C@H]1O [ATP, reference compound]",number of processes per oligodendrocyte,[1]; ATP 50 μM alone,two-fold reduction
same,cells with complete morphology,"[1]; ATP 50 μM alone, 24 h",significant decrease
same,cells with membrane morphology,"[1]; ATP 50 μM alone, 24 h","small, but significant increase"
same,percentage of cells with simple morphology,"[1]; ATP 50 μM alone, 24 h",significant increase
same,oligodendrocyte number relative to control,[1]; ATP alone,significant decrease
"N#CC(=C(/N)Sc1ccccc1N)/C(C#N)=C(\N)Sc1ccccc1N [U0126, reference compound]",PLP RNA expression,[2]; U0126 alone,No significant change
Klk1: Recombinant murine Klk1 expressed using a baculovirus system,number of OPCs,[3],no effect
same,OPC process extension / outgrowth,[3],comparable to controls
same,oligodendrocyte morphology,[4]; 300 nM,did not significantly impact
same,oligodendrocyte number,[4]; [5],did not significantly impact
same,processes per cell,[4]; [5],did not significantly impact
same,Oli-neu cell number,Oli-neu oligodendrocytes; Klk6 30 nM,no effect
same,number of processes per cell,Oli-neu oligodendrocytes,no effect
same,Erk1/2 phosphorylation,Erk1/2 phosphorylation,No significant changes
same,ATP-induced oligodendrocyte loss,[1]; co-application with ATP,did not increase
same,number of processes per oligodendrocyte,[1]; co-application with ATP 50 μM,did not impact
same,oligodendrocytes with membrane morphology,[1]; co-application with ATP 50 μM,significant decrease
"TFLLR-amide (TFLLR-NH2) [PAR1-AP, reference compound]",PLP expression,[2],significantly decreased
same,number of processes per cell,Oli-neu oligodendrocytes,significant decrease
same,maximal lesion area relative to saline alone,spinal cord white matter; PAR1+/+ mice,enhanced
same,reduction of CC-1+ cells in dorsal column white matter,spinal cord white matter; PAR1+/+ mice,~15%
same,loss of MBP-immunoreactivity relative to saline alone,"spinal cord white matter; PAR1+/+ mice, 72 hours",~45%
same,rostrocaudal white matter pathology,"spinal cord white matter; PAR1+/+ mice, 0.02 μg, 72 hours","1,026.0±105.3 μm"
same,white matter pathology,spinal cord white matter; PAR1-/- mice,absent
thrombin,number of OPCs,[3],no effect
same,OPC process extension / outgrowth,[3],inhibited
same,PLP expression,[2],significantly decreased
same,number of processes per cell,Oli-neu oligodendrocytes,significant decrease
